Experimental data reported in patent publication US10449184B2, “Pharmaceutical compositions of therapeutically active compounds” (Agios Pharmaceuticals, Inc., priority 2014, dated 2019).
Entries after “also recorded” stand apart in the source; their conditions may differ. Marks after values point to notes of the source that are not given here.

Columns and labels:
[1] = tested on: IDH1 mutant R132H xenograft model; test: 2HG reduction in IDH1 mutant R132H xenograft model; assay type: in vivo; details: single dose (50 mg/kg)
[2] = tested on: primary human IDH-mutated blast cells; test: intracellular 2HG in primary blast cells ex vivo; assay type: cell-based; details: 0.5 uM, 1 uM and 5 uM
[3] = Phase 1 clinical trial: safety, adverse events and patient disposition; assay type: in vivo, human
Text: The study includes a dose escalation phase to determine MTD followed by expansion cohorts to further evaluate the safety and tolerability of the MTD. The dose escalation phase will utilize a standard “3+3” design. […] Each dose cohort will plan to enroll a minimum of 3 subjects. The first 3 subjects enrolled in each dosing cohort during the dose escalation phase of the study will initially receive a single dose of study drug on Day −3 (i.e., 3 days prior to the start of daily dosing) and undergo PK/PD assessments over 72 hours to evaluate drug concentrations and 2HG levels. The next dose of study drug will be on Cycle 1 Day 1 (C1D1) at which time daily dosing will begin. The initial dosing regimen will be twice daily (approximately every 12 hours). If warranted based on the emerging data, an alternative dosing schedule (e.g., once daily or three times daily), including administration of the same total daily dose using different dosing schedules in concurrent cohorts, may be explored. If there are multiple subjects in the screening process at the time the third subject within a cohort begins treatment, up to 2 additional subjects may be enrolled with approval of the Medical Monitor. For these additional subjects, the Day −3 through Day 1 PK/PD assessments are optional following discussion with the Medical Monitor. The planned dose escalation scheme is illustrated in Table 1.
Toxicity severity will be graded according to the National Cancer Institute Common Terminology Criteria for Adverse Events (NCI CTCAE) version 4.03. A DLT is defined as follows. Hematologic includes prolonged myelosuppression, defined as persistence of ≥3 Grade neutropenia or thrombocytopenia (by NCI CTCAE, version 4.03, leukemia-specific criteria, i.e., marrow cellularity <5% on Day 28 or later from the start of study drug without evidence of leukemia) at least 42 days after the initiation of Cycle 1 therapy. Leukemia-specific grading should be used for cytopenias (based on percentage decrease from baseline: 50 to 75%=Grade 3, >75%=Grade 4). All AEs that cannot clearly be determined to be unrelated to Compound 1, or a pharmaceutically acceptable salt thereof will be considered relevant to determining DLTs.
AEs, including determination of DLTs, serious adverse events (SAEs), and AEs leading to discontinuation; safety laboratory parameters; physical examination findings; vital signs; 12-lead ECGs; LVEF; and ECOG PS will be monitored during the clinical study. The severity of AEs will be assessed by the NCI CTCAE, Version 4.03.
Adverse events will be summarized by Medical Dictionary for Regulatory Activities (MedDRA) system organ class and preferred term. Separate tabulations will be produced for all treatment-emergent AEs (TEAEs), treatment-related AEs (those considered by the Investigator as at least possibly drug related), SAEs, discontinuations due to AEs, and AEs of at least Grade 3 severity. By-subject listings will be provided for deaths, SAEs, DLTs, and AEs leading to discontinuation of treatment.

2HG = test: Phase 1 clinical trial: plasma 2HG inhibition; assay type: in vivo, human; details: all dose levels
Method: Samples collected for PK assessments also will be used to assess 2HG levels. In addition, subjects will have blood drawn for determination of 2HG levels at the screening assessment.
The 2HG baseline was taken at Day −3 pre-treatment 2HG inhibition estimated based on 2HG pre-treatment level and AUC0-10 hr post treatment. For the 100 mg BID and 300 mg QD Cohorts, 3 to 4 patients were measured per time point and for the 500 mg QD Cohort, 1 to 3 patients were measured per time point.

SMILES: N#Cc1ccnc(N2C(=O)CC[C@H]2C(=O)N(c2cncc(F)c2)[C@H](C(=O)NC2CC(F)(F)C2)c2ccccc2Cl)c1 [Compound 1, (S)—N—((S)-1-(2-chlorophenyl)-2-((3,3-difluorocyclobutyl)amino)-2-oxoethyl)-1-(4-cyanopyridin-2-yl)-N-(5-fluoropyridin-3-yl)-5-oxopyrrolidine-2-carboxamide]
- 2HG in xenograft [1]: Reduction in 2HG was observed
- intracellular 2HG [2]: reduced intracellular 2HG
- subjects discontinued study due to an intracranial bleed (SAE, resulted in death) ([3]; 100 mg BID): 1
- QT prolongation observed ([3]; 100 mg cohort, patient with history of R BBB): patient population. Other QT prolongations observed: Grade 1 prolonged
- subjects who experienced differentiation syndrome (SAE) ([3]; 300 mg QD): 1
- DLT (dose limiting toxicity) observed ([3]; 800 mg QD): One DLT (dose limiting toxicity) of grade 3 QT prolongation
- subjects who experienced tongue edema and QT prolongation (SAE) ([3]; 800 mg QD): 1
- QT prolongation observed ([3]; 800 mg cohort): 300 mg cohort; and Grade 3 prolonged QT (DLT) in 800 mg cohort.
- At least 1 adverse event ([3]; All grades): 14 (82) n (%)
- Cough ([3]; All grades): 4 (24) n (%)
- Diarrhea ([3]; All grades): 3 (18) n (%)
- Dyspnea ([3]; All grades): 5 (29) n (%)
- Electrocardiogram QT prolonged ([3]; All grades): 3 (18) n (%)
- Fatigue ([3]; All grades): 5 (29) n (%)
- Febrile neutropenia ([3]; All grades): 3 (18) n (%)
- Nausea ([3]; All grades): 5 (29) n (%)
- Pyrexia ([3]; All grades): 4 (24) n (%)
- Vomiting ([3]; All grades): 4 (24) n (%)
- Death ≤28 days after Compound 1 Discontinuation ([3]; All patients (N = 17)): 6
- Discontinued due to AE (intracranial hemorrhage) ([3]; All patients (N = 17)): 1** n
- Discontinued due to PD (progressive disease) ([3]; All patients (N = 17)): 4 n
- Death ≤28 days after Compound 1 Discontinuation ([3]; Cohort 1 100 mg BID (n = 4)): 3
- Discontinued due to AE (intracranial hemorrhage) ([3]; Cohort 1 100 mg BID (n = 4)): 1** n
- Discontinued due to PD (progressive disease) ([3]; Cohort 1 100 mg BID (n = 4)): 2 n
- Death ≤28 days after Compound 1 Discontinuation ([3]; Cohort 2 300 mg QD (n = 4)): 2
- Discontinued due to PD (progressive disease) ([3]; Cohort 2 300 mg QD (n = 4)): 1 n
- Death ≤28 days after Compound 1 Discontinuation ([3]; Cohort 3 500 mg QD (n = 4)): 1
- Discontinued due to PD (progressive disease) ([3]; Cohort 3 500 mg QD (n = 4)): 1 n
- At least 1 adverse event ([3]; Grade ≥3): 11 (65) n (%)
- Cough ([3]; Grade ≥3): 0 n (%)
- Diarrhea ([3]; Grade ≥3): 0 n (%)
- Dyspnea ([3]; Grade ≥3): 2 (12) n (%)
- Electrocardiogram QT prolonged ([3]; Grade ≥3): 1 (6) n (%)
- Fatigue ([3]; Grade ≥3): 1 (6) n (%)
- Febrile neutropenia ([3]; Grade ≥3): 3 (18) n (%)
- Nausea ([3]; Grade ≥3): 1 (6) n (%)
- Pyrexia ([3]; Grade ≥3): 1 (6) n (%)
- Vomiting ([3]; Grade ≥3): 0 n (%)
- hypotension ([3]; Grade ≥3): Notable grade ≥3 AEs include: hypotension 2 (12%), mental status n (%)
- mental status changes ([3]; Grade ≥3): changes 2 (12%), neutropenia 2 (12%). AEs appear typical for this n (%)
- neutropenia ([3]; Grade ≥3): changes 2 (12%), neutropenia 2 (12%). AEs appear typical for this n (%)
- subjects who experienced serious adverse events ([3]; all cohorts): Eight
- plasma levels of 2HG (2HG; 100 mg BID, 300 mg QD or 500 mg QD): reduced to a normal range; also recorded: reduced to normal ranges
- plasma 2HG inhibition (2HG; vs Day -3 pre-treatment level, AUC0-10 hr post treatment): up to 98%
